Data reported in PubChem BioAssay (NCI).
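These data come from cells grown in 96-well plates and exposed to compound for 48 hours at five concentrations. GI50 marks 50% less growth. TGI: total growth inhibition.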

Tests used:
Experiment in all cases: NCI tumour cell line growth inhibition, 48 h
[1] = tested on: COLO 205 colon
[2] = tested on: SK-MEL-28 melanoma
[3] = tested on: M19-MEL melanoma
[4] = tested on: HOP-62 NSCLC
[5] = tested on: DMS 114 small cell lung
[6] = tested on: SK-MEL-2 melanoma
[7] = tested on: ACHN renal
[8] = tested on: SNB-75 CNS
[9] = tested on: T-47D breast
[10] = tested on: MDA-MB-435

SMILES | TGI [1] [µM] | TGI [2] [µM] | TGI [3] [µM] | TGI [4] [µM] | TGI [5] [µM] | TGI [6] [µM] | TGI [7] [µM] | TGI [8] [µM] | GI50 [8] [µM] | GI50 [2] [µM] | GI50 [6] [µM] | TGI [9] [µM] | GI50 [1] [µM] | GI50 [4] [µM] | GI50 [7] [µM] | GI50 [10] [µM] | TGI [10] [µM] | GI50 [9] [µM]
O=C(Nc1cccc(Cl)c1)C(=O)C(C(=O)c1ccc2ccccc2c1)C1OC(=O)c2ccccc21 (stereo not given) | 38.1 | 25.8 | 39.1 | 37.3 | 79.3 | 32.5 | 82.7 | – | – | – | – | – | – | – | – | – | – | –
COc1ccc2c(c1OCC(=O)O)C(=O)C(CCC(=O)O)CC2 (stereo not given) | > 100 | > 100 | > 100 | > 100 | > 100 | – | > 100 | > 100 | – | – | – | – | – | – | – | – | – | –
CCOC(=O)N[C@H]1CCc2cc(OC)c(OC)c(OC)c2-c2ccc(SC)c(=O)cc21 | – | > 100 | – | > 100 | < 0.0117 | – | > 100 | – | < 0.01 | > 55.6 | 0.345 | > 100 | – | – | – | – | – | –
COC(=O)/C(C#N)=C1\N=NNN1c1ccc(OC)cc1 | > 100 | > 100 | > 100 | – | > 100 | – | > 100 | > 100 | – | – | – | – | – | – | – | – | – | –
CC1(C)COC(c2cccc3c2C(=O)c2cccc(Cl)c2-3)=N1 | > 100 | > 100 | – | – | > 100 | > 100 | > 100 | > 100 | – | – | – | – | – | – | – | – | – | –
CCCCCCCCCCCCCCCC(=O)OCCOCCOCCOCc1ccccc1 | > 100 | > 100 | > 100 | > 100 | – | > 100 | > 100 | > 100 | – | – | – | – | – | – | – | – | – | –
COc1c(O)c2c(=O)cc3c4c5c(cc(=O)c6c(O)c(OC)c(CC(C)O)c(c(c1CC(C)O)c24)c65)OCO3 (stereo not given) | 0.765 | 4.23 | 2.08 | 4.01 | – | 3.57 | 5.96 | 7.56 | – | – | – | – | – | – | – | – | – | –
COC(=O)[C@]12CC[C@@H](C)[C@H](C)[C@@H]1C1=CC[C@@H]3[C@@]4(C)C[C@@H](O)[C@H](O)[C@@](C)(CO)C4=CC[C@@]3(C)[C@]1(C)CC2 | 34.4 | 40.9 | – | 39.2 | – | 33.1 | 33.8 | 28 | 14.3 | 19.2 | 17.8 | 27.8 | 17.9 | 21.3 | 17.7 | 15.4 | 30.3 | 12.3
CN(C)C1CCN(C(=O)c2ccc(NC(=O)Nc3ccc(-c4nc(N5CCOCC5)c5cccn5n4)cc3)cc2)CC1 | 1.42 | 0.849 | – | 2.82 | – | 1.43 | 13 | 0.0711 | 0.0138 | 0.0724 | 0.0833 | 0.0664 | 0.0535 | 0.0573 | 1.05 | 0.0403 | 0.492 | 0.0134
NS(=O)(=O)c1ccc(N=Nc2c(O)c(C(=O)O)cc3ccccc23)cc1 | > 84.2 | > 100 | – | > 100 | – | > 100 | > 100 | > 100 | – | – | – | > 100 | – | – | – | – | > 100 | –
O=c1c(F)cn(Cc2ccc(C34CC5CC(CC(C5)C3)C4)c(O)c2)c(=O)n1Cc1ccc(C23CC4CC(CC(C4)C2)C3)c(O)c1 | 37.5 | 32.3 | – | 33.1 | – | 41.8 | 26.3 | 30 | 15.1 | 17.7 | 18.8 | 51.6 | 18 | 17.5 | 13.5 | 14.4 | 29.2 | 20.8
Clc1cc2c(c(CSc3nc4ccccc4n4cccc34)c1)OCOC2 | > 100 | > 100 | – | 31.8 | – | 44.9 | > 100 | 26.8 | 6.48 | > 100 | 13.6 | 9.33 | > 100 | 10.3 | 67.3 | > 100 | > 100 | 0.596
O=c1oc2ccc(-c3ccc(F)cc3F)cc2c(=O)n1-c1cccc(C(F)(F)F)c1 | 24.7 | 6.56 | – | 4.57 | – | 2.85 | 8.37 | 3.78 | 1.33 | 0.756 | 0.55 | 3.29 | 10.4 | 1.73 | 2.25 | 1.44 | 8.04 | 0.317
CCN1CCN(c2cc(C)c3cc(NC(=O)c4ccc(OC)c(OC)c4)ccc3n2)CC1 | > 37.6 | > 59.7 | – | > 57.7 | – | > 61.8 | > 100 | > 61.3 | 5.54 | 19.9 | > 40.5 | > 100 | 3.23 | > 37 | > 34.4 | 0.448 | 5.56 | > 39
CN(C)C(=S)/N=c1\sn(C)/c(=N\C(=S)N(C)C)n1C | > 100 | > 100 | 69.7 | > 100 | – | – | > 100 | > 100 | – | – | – | – | – | – | – | – | – | –
CC(C)(/C=C(\C#N)C(=O)N1CCC[C@@H](n2nc(-c3ccc(Oc4ccccc4)cc3F)c3c(N)ncnc32)C1)N1CCN(C2COC2)CC1 | 24.3 | 22 | – | 25.7 | – | 26.2 | 17.1 | 20.7 | 5.98 | 9.71 | 10.1 | 29.5 | 5.71 | 10.1 | 4.53 | 4.81 | 17.3 | 4.77
CN(C)CC[C@H](CSc1ccccc1)Nc1ccc(S(=O)(=O)NC(=O)c2ccc(N3CCN(Cc4ccccc4-c4ccc(Cl)cc4)CC3)cc2)cc1[N+](=O)[O-] | 4.7 | > 100 | – | > 60.2 | – | 4.94 | > 50.6 | > 100 | 6.09 | 5.73 | 1.88 | > 60.4 | 2.12 | 9.66 | 4.96 | 2.47 | > 34.6 | 5.87
O=C(Nc1ccc(Br)cc1F)c1cc(Cl)ccc1O | 8.2 | 2.07 | – | 5.22 | – | 2 | > 31.3 | 2.4 | 0.202 | 0.399 | 0.372 | 4.83 | 2.74 | 1.64 | 0.619 | 0.71 | 5.88 | 0.466

SMILES | TGI [1] [µM] | TGI [2] [µM] | TGI [3] [µM] | TGI [4] [µM] | TGI [5] [µM] | TGI [6] [µM] | TGI [7] [µM] | TGI [8] [µM] | GI50 [8] [µM] | GI50 [2] [µM] | GI50 [6] [µM] | TGI [9] [µM] | GI50 [1] [µM] | GI50 [4] [µM] | GI50 [7] [µM] | GI50 [10] [µM] | TGI [10] [µM] | GI50 [9] [µM]
O=C(/C=C/c1ccc[nH]1)c1ccc(-n2ccc(C(F)(F)F)n2)cc1 | > 100 | > 100 | – | > 100 | – | > 100 | > 100 | 4.37 | 0.877 | > 100 | > 100 | > 100 | > 100 | > 100 | > 100 | > 100 | > 100 | > 40.9
CC(C)C1=Cc2ccc3c(c2C(=O)C1=O)CCCC3(C)C | 14.5 | 13.1 | 6.99 | 37 | – | 34.6 | 13 | 29.3 | – | – | – | – | – | – | – | – | – | –
O=C(Nc1cccc(C(F)(F)F)c1)c1ccc(NC2=C(Cl)C(=O)N(Cc3ccc(Cl)cc3Cl)C2=O)cc1 | 24.2 | 30.9 | – | 32.2 | – | 25.6 | 46.1 | 33.3 | 14.6 | 14.1 | 10.9 | > 100 | 4.78 | 18 | 11.9 | 16.1 | 32.4 | 2.8
NC(N)=N/N=C/c1c(Cl)cccc1Cl | 32.1 | 34.6 | – | > 100 | – | 36.1 | > 100 | 54.1 | 16.7 | 17.6 | 18.5 | 39.6 | 17.2 | 30.9 | 25.4 | 15.3 | 31.1 | 14.7
CN1CCN(c2ccc(Nc3cc(-c4cccc(-n5ccc6cc(C7CC7)cc(F)c6c5=O)c4CO)cn(C)c3=O)nc2)CC1 | 5.72 | 17 | – | 20.7 | – | 35.1 | 3.76 | 2.96 | 1.33 | 4.1 | 15 | 15.9 | 2.22 | 3.97 | 1.84 | 3.28 | 14 | 3.04
C/C(CC(=O)Nc1ccc(C)c(C)c1)=N\N(c1ccccc1)c1ccccc1 | 34.6 | > 100 | – | > 100 | 33.2 | > 100 | > 100 | > 100 | – | – | – | – | – | – | – | – | – | –
O=C(NC[C@H](O)CN1CCc2ccccc2C1)c1cc(NC2COC2)ncn1 | > 100 | > 100 | – | > 100 | – | 51.7 | > 100 | 64.5 | 12.5 | 31.6 | 15.9 | > 100 | 13.4 | 37.7 | 25.1 | 12.9 | 94.1 | 9.26
C[C@@H]1C[C@@H]([C@@H](CC2CC(=O)NC(=O)C2)OC(=O)CC(=O)c2ccccc2)C(=O)[C@@H](C)C1 | > 100 | > 29.6 | – | > 100 | – | 22.8 | > 100 | > 55.1 | 0.911 | 0.752 | 0.88 | > 29.4 | 0.849 | 0.99 | 0.0777 | 0.463 | > 32.6 | 0.554
Cc1nnc(Nc2ccc(NC(=O)Nc3ccc(Cl)cc3)cc2)c2ccccc12 | 5.29 | 3.2 | – | 3.7 | – | 4.59 | 3.69 | 5.49 | 1.91 | 1.63 | 2.22 | 5.08 | 2.22 | 1.81 | 1.84 | 1.73 | 3.43 | 2.06
COc1cc(C(=O)N2CCN(C(=O)c3cc(OC)c(OC)c(OC)c3)C2=S)cc(OC)c1OC | 40.4 | 35.5 | – | 38.9 | – | 34.6 | 34.5 | 21.6 | 7.1 | 17.2 | 16.3 | 40.3 | 19.4 | 15.2 | 17.8 | 13.1 | 28.8 | 13.1
O=C(/C(=C/c1ccc(Cl)cc1)c1ccccc1)c1ccccc1 | 33 | 30.6 | – | 57.5 | 37.2 | 36.6 | 39.5 | 69.4 | – | – | – | – | – | – | – | – | – | –
CN(C)CCC(/C=C/c1ccccc1)=N\Nc1ccccc1 | 3.7 | 3.54 | 3.63 | 8.93 | 17.3 | – | 2.31 | 13.7 | – | – | – | – | – | – | – | – | – | –
CCOC(=O)c1ccc(/C(C)=N/NC(N)=S)cc1 | > 100 | > 100 | > 100 | > 100 | > 100 | – | > 100 | > 100 | – | – | – | – | – | – | – | – | – | –
CN1C(=O)c2ccccc2NC(=O)C12O[C@@H]2c1ccccc1 (stereo not given in full) | > 100 | > 100 | – | > 100 | – | > 100 | > 100 | > 100 | – | – | – | > 100 | – | – | – | – | > 100 | –
O=C(Cc1ccc(F)c(Cl)c1)Nc1cc(C2(C(F)(F)F)CC2)nn1CC1CCCCC1 | 5.41 | > 15 | – | > 15 | – | 13.3 | 13.9 | 5.99 | 0.808 | 4.82 | 3.99 | 13.6 | 2.59 | 3.96 | 4.22 | 3.85 | 11.7 | 3.78
O=C(c1ccco1)c1c(C(F)(F)F)nc2ccc(Cl)cc2[n+]1[O-] | > 100 | > 100 | – | > 100 | – | > 100 | > 100 | > 100 | 54 | > 100 | > 100 | > 100 | 70.4 | > 100 | > 100 | > 100 | > 100 | > 100
N#Cc1nn(-c2cc(=O)[nH]c3ccc(Cl)cc23)c(N)c1C#N | > 100 | > 100 | – | > 100 | – | > 100 | > 100 | > 100 | > 100 | > 100 | > 100 | > 100 | 59.3 | > 100 | > 100 | > 100 | > 100 | 38.9
